{
  "source": "patent US20190192427A1",
  "about": "“AZOLE COMPOUND OPHTHALMIC PREPARATION” (BIOTOOL, LLC, priority 2016, published 2019)",
  "key": {"nuclear cataract": {"tested_on": "nuclear cataract", "test": "Rat sodium selenite (senile/nuclear) cataract model, eye drops, lens opacity phase by slit lamp", "format": "in vivo, Wistar rats", "settings": "10 suffering eyes per group, about 20 μL three times a day, 10 weeks", "experimental": "(§1) Rat model of cataract was made: Wistar rats 12 days after birth were selected, male or female, modeled with sodium selenite (senile cataract), each rat was injected subcutaneously in the back neck according to 20 umol/kg body weight. Acupuncture was used to model adult rats (traumatic cataract).\n(§2) The opacity of the lens was observed using a slit lamp, and the lens opacity is generally classified into phase 0-V.\n(§3) phase 0—Lens are transparent;\n(§4) phase I—The cortex around the lens is scattered in small vacuoles;\n(§5) phase II—The cortex around the lens is in ring-shaped dense medium vacuoles;\n(§6) phase III—Other parts of cortex are in flaky turbidity;\n(§7) phase IV—Lens nucleus and perinuclear cortex are turbid;\n(§8) phase V—The lens is completely turbid.\n(§9) After 3 days of modeling, econazole eye drops were administered three times a day including morning, noon, and evening, at intervals of at least 5 hours. Every group was made up of 10 cases of cataract suffering eyes involved in the test. The mode of administration was directly dropping to the eye to ensure that the drug was completely dripped into the eye. Each case of suffering eye receiving treatment was administrated one drop at a time with an amount of about 20 μL, and was continuously administrated for 10 weeks. All cataract suffering eyes in different treatment groups were observed and judged for signs of symptom ease or symptom relief."}, "traumatic cataract": {"tested_on": "traumatic cataract", "test": "Rat acupuncture (traumatic) cataract model, eye drops, lens opacity phase by slit lamp", "format": "in vivo, rats", "settings": "10 suffering eyes per group, about 20 μL three times a day, 10 weeks", "experimental": "as §1, §2, §3, §4, §5, §6, §7, §8, §9"}, "[1]": {"test": "Tolerance of eye drops in cataract rats during treatment", "format": "in vivo, rat", "settings": "eye drops three times a day, 10 weeks", "experimental": "as §9"}},
  "data": [
    {"molecule": "Clc1ccc(COC(Cn2ccnc2)c2ccc(Cl)cc2Cl)cc1", "note": "(stereo not shown) [econazole, Econazole]", "values": [
      {"measurement": "number of eyes in phase 0", "setting": "nuclear cataract", "result": 6},
      {"measurement": "number of eyes in phase I", "setting": "nuclear cataract", "result": 0},
      {"measurement": "number of eyes in phase II", "setting": "nuclear cataract", "result": 0},
      {"measurement": "number of eyes in phase III", "setting": "nuclear cataract", "result": 0},
      {"measurement": "number of eyes in phase IV", "setting": "nuclear cataract", "result": 4},
      {"measurement": "number of eyes in phase V", "setting": "nuclear cataract", "result": 0},
      {"measurement": "number of eyes in phase 0", "setting": "traumatic cataract", "result": 4},
      {"measurement": "number of eyes in phase I", "setting": "traumatic cataract", "result": 5},
      {"measurement": "number of eyes in phase II", "setting": "traumatic cataract", "result": 1},
      {"measurement": "number of eyes in phase III", "setting": "traumatic cataract", "result": 0},
      {"measurement": "number of eyes in phase IV", "setting": "traumatic cataract", "result": 0},
      {"measurement": "number of eyes in phase V", "setting": "traumatic cataract", "result": 0},
      {"measurement": "discomfort or ocular allergic reaction throughout the treatment", "setting": "[1]", "result": "No rat has discomfort or ocular allergic reaction"}
    ]}
  ]
}
